SMILES	melting point [°C]
CCCCOc1ccc(S(C)(=O)=O)cc1C(=O)Nc1c(C(N)=O)nn(C2CN(C(C)C)C2)c1CC	198 to 201
O=C1CCC(N2Cc3c(OCc4ccc(CN5CCC(C(F)(F)F)CC5)cc4)cccc3C2=O)C(=O)N1 (stereo unspecified)	178 to 180
COc1ccccc1N1CCN(CCc2c(C)c3ccc(OC)c(OC)c3oc2=O)CC1	146 to 148
Nc1cc(F)c(F)cc1C(=O)NOCc1ccccc1	125 to 126
Nc1sc2c(c1C(=O)c1ccco1)CCCC2	121 to 122
O=C(CNC(=O)c1cc([N+](=O)[O-])c([N+](=O)[O-])cc1Cl)OCc1ccccc1	122 to 124
Cc1ccc(C(=O)CO)cc1	83 to 87
CC(=O)c1cccc(-c2ccc(O)cc2)c1	146 to 149
CCCCOC(=O)c1ccc2ccc(C)nc2c1OC(=O)C(C)(C)C	52
COc1ccc(Nc2ccccc2CCC(=O)c2ccccc2)cc1	110 to 112
COC(=O)CCCC(C)(C)c1ccc(C(=O)c2ccccc2C(=O)O)cc1	138 to 140
CN1C(=O)CCC(C)(C)c2cc(NC(=O)c3ccc(C(=O)O)cc3)ccc21	> 275
Cc1coc2cc(Cl)cc(Cl)c12	45
O=Cc1ccc(OCCN2OCc3ccccc3C2=O)cc1	102
CC1(C)OC(=C(C#N)C#N)C(C#N)=C1/C=C/c1ccc([N+](=O)[O-])cc1	281
CC(C)OC(=O)c1cc(N=c2sc(=O)n3n2CCCC3)c(F)cc1F	86 to 88
Cc1cc(C)c(Nc2nc(C)ncc2S(=O)(=O)c2ccc(-c3ccccn3)cc2)c(C)c1	201 to 203
CN1CCN(C2=Nc3ccccc3Sc3nccn32)CC1	145 to 147
COC(=O)c1cc(C#N)cn1CC(=O)c1ccccc1	169 to 172
CC(=O)N1CCc2ccc(/C=C/CCN3CCC(c4ccc(Cl)cc4)CC3)cc2CC1	153 to 155
c1ccc(Cn2ncc3c2Cc2cn[nH]c2-3)cc1	61 to 72

SMILES	melting point [°C]
O=C(Nc1c[nH]nc1C(=O)NCc1ccc(-c2ccccc2)cc1)c1ccccn1	227 to 228
COc1ccc(C(=O)c2cc(F)ccc2F)c(O)c1Cl	178 to 180
CSC1CC(=O)N1CC(=O)CS(=O)(=O)c1ccccc1 (stereo unspecified)	82 to 84
CC(O)(c1nc2ccc(S(=O)(=O)c3ccccc3)cc2[nH]1)C(F)(F)F (stereo unspecified)	115 to 117
O=c1[nH]c(=O)n(Cc2ccc(Oc3ccc(Cn4oc(=O)[nH]c4=O)cc3)cc2)o1	175 to 178
CCOC(=O)c1cccn2cc(C)nc12	62 to 64
CCn1ncc2c(Cl)c(CO)cnc21	56
CCC1(CCCCCBr)C(=O)Nc2ccc(C)cc21 (stereo unspecified)	72 to 73
CCc1cn(CC)cc(-c2cccc(C(F)(F)F)c2)c1=O	67 to 70
OCCc1ccc(Cl)cc1CO	75 to 76
O=C1CCC(c2ccc(-c3nccs3)cc2)=NN1	265 to 266
CCCNC(=O)Nc1ccc2oc([N+](=O)[O-])c(-c3ccccc3)c2c1	199 to 201
O=C(c1ccccc1)c1cc(O)ccc1O	160 to 162
CCCc1c(S(=O)CCCOc2ccc(C(C)=O)c(OCCCC(=O)OCC)c2CCC)ccc(C(C)=O)c1O (stereo unspecified)	74 to 76
Cc1cc2c(c3ccc(=O)[nH]c13)OC(CNC=O)C2 (single isomer, unassigned; (+))	282 to 284
Cn1nc2c(c1S(C)(=O)=O)CCCN2c1ccc(Cl)cc1Cl	182 to 183
N#Cc1c[nH]cc1-c1ccc(Cl)cc1	147 to 148
COc1ccc2cc(C(C)=CC(C)=O)cc(F)c2c1	126 to 127
COC1(c2nc3c(F)cccc3s2)C=CC(=NS(=O)(=O)c2ccc(C)cc2)C=C1 (stereo unspecified)	176
CC(c1oc2ccccc2c(=O)c1-c1cccc(F)c1)n1nc(-c2cn[nH]c2)c2c(N)ncnc21 (stereo unspecified)	223 to 226

— a melting point compilation (Tetko et al.; mined from patent text by program, amines drawn as free bases though some values may be those of a salt)
